From paper PMC3849007 (Journal of Experimental & Clinical Cancer Research : CR, 2013)
Counter-ions that a name gives are not always drawn.

Key:
[1] = target: T1, hERG (Homo sapiens, UniProt Q12809); assay: hERG tail current inhibition, patch clamp assay; format: cell-based; conditions: human, HEK293 cells (hERG study), 10 μM, HEK293 cells, read-out: hERG % inhib. (10 μM)
T1 construct: expressed in transfected cells; host or cells: HEK293
Protocol: (§1) For hERG study, HEK293 cells were cultured (1–7 days) in DMEM/GlutaMax-1 + 10% FBS and were plated on collagen-coated dishes (about 2×10^4 cells/dish). The cell was held at -80 mV. A 50-millisecond pulse to -40 mV was delivered to measure the leaking currents, which were subtracted from the tail currents online. […] This paradigm was delivered once every 5 seconds to monitor the current amplitude. After the current amplitude stabilized, the test compound was delivered to the extracellular medium by a rapid solution changer perfusion system. During perfusion, the cell was repetitively stimulated with the protocol described above, and the current amplitude was continuously monitored. Data were acquired and analyzed by using pClamp (Axon Instruments), and Excel (Microsoft), and are reported as mean and individual values. The degree of inhibition (%) was obtained by measuring the tail current amplitude before and after drug superfusion (the difference current was normalized to control and multiplied by 100 to obtain the percent of inhibition). […] The concentration-response relationship of each compound was constructed from the percentage reductions of current amplitude by sequential concentrations. β2-adrenergic receptor CHO expressing cells were used for the receptor inhibition assay as described. The results are expressed as a percent of inhibition of control specific binding (100 - (measured specific binding/control specific binding) × 100)) obtained in the presence of the test compounds. The specific ligand binding to the receptors is defined as the difference between the total binding and the nonspecific binding determined in the presence of an excess of unlabelled ligand. All the in-vivo experiments were carried out at the Regina Elena Cancer Institute. All procedures involving animals and care were performed in compliance with our institutional animal care guidelines and with international directives (directive 2010/63/EU of the European parliament and of the council; Guide for the Care and Use of Laboratory Animals, United States National Research Council, 2011).

[2] = test system: h-Tel quadruplex DNA 5′-d[AGGG(TTAGGG)3]-3′; assay: Surface plasmon resonance, quadruplex DNA; conditions: for Surface plasmon resonance K, Quadruplex (Q) DNA: 10 mM HEPES, 200 mM KCl, 3 mM EDTA, 0.01% P20, pH 7.4, equilibrium binding constant
Excerpt: Oligonucleotides 5′-biotin-d[AG3(T2AG3)3] quadruplex and 5′-biotin-CGA3T3C(CT)2GA3T3CG were purchased from Midland Certified Reagent Company (Midland, TX).
In the present work these measurements were repeated comparing ligand binding to the same h-Tel sequence but with a different duplex sequence 5′-d[CGA3T3C(CT)2GA3T3CG]-3′ as comparator.

[3] = test system: h-Tel quadruplex (Q) DNA, 5'-biotin-d[AG3(T2AG3)3] (DNA, G4) AGGGTTAGGGTTAGGGTTAGGG; assay: surface plasmon resonance; conditions: 200 mM KCl; 10 mM HEPES, 3 mM EDTA, 0.01% P20, pH 7.4
[4] = target: T2, human recombinant β2 adrenergic receptor (Homo sapiens, UniProt P07550); assay: β2-adrenergic receptor binding assay (CHO expressing cells)
T2 construct: expressed in transfected cells; host or cells: CHO
T2 sequence (P07550 whole entry): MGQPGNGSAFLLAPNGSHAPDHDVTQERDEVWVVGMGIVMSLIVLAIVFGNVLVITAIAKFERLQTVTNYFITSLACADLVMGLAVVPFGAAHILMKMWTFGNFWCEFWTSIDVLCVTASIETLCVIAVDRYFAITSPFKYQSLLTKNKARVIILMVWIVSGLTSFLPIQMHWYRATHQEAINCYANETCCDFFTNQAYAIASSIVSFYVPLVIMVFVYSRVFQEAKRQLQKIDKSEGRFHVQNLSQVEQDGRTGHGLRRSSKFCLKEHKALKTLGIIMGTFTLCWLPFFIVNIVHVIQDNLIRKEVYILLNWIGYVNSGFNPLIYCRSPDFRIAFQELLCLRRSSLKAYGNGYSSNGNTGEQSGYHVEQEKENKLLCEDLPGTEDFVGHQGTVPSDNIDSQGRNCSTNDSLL
Protocol: as §1, with “Institute.” for “Institute. All procedures involving animals and care were performed in compliance with our institutional animal care guidelines and with international directives (directive 2010/63/EU of the European parliament and of the council; Guide for the Care and Use of Laboratory Animals, United States National Research Council, 2011).”
Inhibition of receptor was reported as inhibition of control specific binding (100 - (measured specific binding/control specific binding) × 100) obtained in the presence of the test compounds.

[5] = test system: h-Tel (anti-parallel) quadruplex; assay: CD thermal unfolding of h-Tel quadruplex; format: binding, human
Protocol: CD spectra were recorded on an Applied Photophysics Pi-Star-180 spectrophotometer (Applied Photophysics Ltd, Surrey, UK). The optical system was configured with a 75 W Xe lamp, circular light polarizer and end-mounted photomultiplier. The instrument had previously been calibrated with (D)-camphorsulfonic acid. Temperature was regulated using a Neslab RTE-300 circulating programmable water bath (Neslab Inc). CD spectra were recorded at 298 K in a 10 mm path length cell over a wavelength range of 215–345 nm in steps of either 1 0r 2 nm, with 3 nm entrance/exit slit widths: the number of counts was set to 10,000 with adaptive sampling set to 500,000. The spectra were corrected by subtracting the spectrum of the same buffer solution of 100 mM potassium chloride and 10 mM potassium phosphate at pH 7.0. Annealing and melting profiles were recorded using a thermoelectric temperature controller (Melcor) on 4 μM DNA samples with and without 3.5 mol.equiv. of ligands using 0.5 K temperature increments and a cooling or heating rate of 0.2 K/min over the temperature range 298-368 K.
This analysis was extended to examine the effects of ligand binding on thermal stability by measuring the unfolding curves at 290 nm of the complexes formed in K^+ solution, corresponding to the CD spectra shown in Figure 4a. Monitoring the thermal unfolding transition for h-Tel produces a sigmoidal unfolding curve with a transition mid-point Tm value of 72 ± 3°C (Figure 4c). All three ligands show significant effects in enhancing the stability of the quadruplex by shifting the Tm values to higher temperatures (∆Tm ~ 15-19°C compared to h-Tel without bound ligands) (Table 1).

[6] = test system: BJ-EHLT fibroblasts; assay: Proliferation assay, transformed fibroblasts; format: cell-based, human; conditions: 0.5 μM, culture day 2 to 8
Protocol: (§2) BJ fibroblasts expressing hTERT (BJ-hTERT) or hTERT and SV40 early region (BJ-EHLT), were obtained as previously reported. Cells were grown in Dulbecco Modified Eagle Medium (D-MEM, Invitrogen Carlsbad, CA, USA) supplemented with 10% fetal calf serum, 2 mM L-glutamin and antibiotics.
(§3) 5 × 10^4 cells were seeded in 60-mm Petri plates (Nunc, MasciaBrunelli, Milano, Italy) and 24 h after plating, 0.5 μM of freshly dissolved compound was added to the culture medium. Cell counts (Coulter Counter, Kontron Instruments, Milano, Italy) and viability (trypan blue dye exclusion) were determined daily, from day 2 to day 8 of culture.

[7] = test system: BJ-hTERT fibroblasts; assay: Proliferation assay, normal telomerised fibroblasts; format: cell-based, human; conditions: 0.5 μM, culture day 2 to 8
Protocol: as §2, §3

[8] = test system: γH2AX in BJ-EHLT fibroblasts; assay: Immunofluorescence for γH2AX (DNA damage response); format: cell-based, human; conditions: 0.5 μM, 24 hrs
Protocol: (§4) Cells were fixed in 2% formaldehyde and permeabilized in 0.25% Triton X100 in PBS for 5 min at room temperature. For immunolabeling, cells were incubated with primary antibody, then washed in PBS and incubated with the secondary antibodies. The following primary antibodies were used: pAb and mAb anti-TRF1 (Abcam Ltd.; Cambridge UK); mAb (Upstate, Lake Placid, NY) and pAb anti-γH2AX (Abcam). The following secondary antibody were used: TRITC conjugated Goat anti Rabbit, FITC conjugated Goat anti Mouse (Jackson ImmunoResearch Europe Ltd., Suffolk, UK). Fluorescence signals were recorded by using a Leica DMIRE2 microscope equipped with a Leica DFC 350FX camera and elaborated by a Leica FW4000 deconvolution software (Leica, Solms, Germany). This system permits to focus single planes inside the cell generating 3D high-resolution images. For quantitative analysis of γH2AX positivity, 200 cells on triplicate slices were scored. For TIF’s analysis, in each nucleus a single plane was analyzed and at least 50 nuclei per sample were scored.

[9] = test system: Telomere dysfunction Induced Foci in BJ-EHLT fibroblasts; assay: TIF analysis (γH2AX/TRF1 co-localization); format: cell-based, human; conditions: 24 hrs
Protocol: as §4

[10] = test system: telomere aberrations in BJ-EHLT fibroblasts; assay: Telomere FISH on metaphase spreads; format: cell-based, human; conditions: 0.5 μM, 72 hrs
Protocol: For metaphase chromosome preparation cells were treated with demecolcine (Sigma, Milan, Italy) 0.1 mg/ml for 4 h and then harvested and washed in 75 mM KCl for 5 min at 37°C. After centrifugation cells were fixed in MeOH/acetic acid 3:1 overnight and then spread on slides. Hybridization with rhodamine-coupled PNA was performed as described. For each sample 20 metaphases per slice on triplicate were scored. Images of the metaphases were captured with a 100 × objective.

[11] = test system: NCI60 panel; assay: NCI60 panel growth inhibition; format: cell-based, human
[12] = test system: h-Tel 5'-d[AGGG(TTAGGG)3]-3' (DNA, G4) AGGGTTAGGGTTAGGGTTAGGG; assay: CD melting at 290 nm; conditions: 110 mM K+ (100 mM KCl, potassium phosphate); 10 mM potassium phosphate, pH 7.0; 4 μM DNA, 3.5 mol equiv. ligand; Tm 89 ± 3
[13] = test system: duplex (D) DNA hairpin, 5'-biotin-CGA3T3C(CT)2GA3T3CG (DNA, hairpin) CGAAATTTCCTCTGAAATTTCG; assay: surface plasmon resonance; conditions: 200 mM KCl; 10 mM HEPES, 3 mM EDTA, 0.01% P20, pH 7.4
[14] = test system: h-Tel 5'-d[AGGG(TTAGGG)3]-3' (DNA, G4) AGGGTTAGGGTTAGGGTTAGGG; assay: CD spectroscopy, induced anti-parallel structure; conditions: no significant K+; 298 K; 3.5 molar equivalents of ligand; band at 290 nm emerges

T1 sequence (Q12809 whole entry): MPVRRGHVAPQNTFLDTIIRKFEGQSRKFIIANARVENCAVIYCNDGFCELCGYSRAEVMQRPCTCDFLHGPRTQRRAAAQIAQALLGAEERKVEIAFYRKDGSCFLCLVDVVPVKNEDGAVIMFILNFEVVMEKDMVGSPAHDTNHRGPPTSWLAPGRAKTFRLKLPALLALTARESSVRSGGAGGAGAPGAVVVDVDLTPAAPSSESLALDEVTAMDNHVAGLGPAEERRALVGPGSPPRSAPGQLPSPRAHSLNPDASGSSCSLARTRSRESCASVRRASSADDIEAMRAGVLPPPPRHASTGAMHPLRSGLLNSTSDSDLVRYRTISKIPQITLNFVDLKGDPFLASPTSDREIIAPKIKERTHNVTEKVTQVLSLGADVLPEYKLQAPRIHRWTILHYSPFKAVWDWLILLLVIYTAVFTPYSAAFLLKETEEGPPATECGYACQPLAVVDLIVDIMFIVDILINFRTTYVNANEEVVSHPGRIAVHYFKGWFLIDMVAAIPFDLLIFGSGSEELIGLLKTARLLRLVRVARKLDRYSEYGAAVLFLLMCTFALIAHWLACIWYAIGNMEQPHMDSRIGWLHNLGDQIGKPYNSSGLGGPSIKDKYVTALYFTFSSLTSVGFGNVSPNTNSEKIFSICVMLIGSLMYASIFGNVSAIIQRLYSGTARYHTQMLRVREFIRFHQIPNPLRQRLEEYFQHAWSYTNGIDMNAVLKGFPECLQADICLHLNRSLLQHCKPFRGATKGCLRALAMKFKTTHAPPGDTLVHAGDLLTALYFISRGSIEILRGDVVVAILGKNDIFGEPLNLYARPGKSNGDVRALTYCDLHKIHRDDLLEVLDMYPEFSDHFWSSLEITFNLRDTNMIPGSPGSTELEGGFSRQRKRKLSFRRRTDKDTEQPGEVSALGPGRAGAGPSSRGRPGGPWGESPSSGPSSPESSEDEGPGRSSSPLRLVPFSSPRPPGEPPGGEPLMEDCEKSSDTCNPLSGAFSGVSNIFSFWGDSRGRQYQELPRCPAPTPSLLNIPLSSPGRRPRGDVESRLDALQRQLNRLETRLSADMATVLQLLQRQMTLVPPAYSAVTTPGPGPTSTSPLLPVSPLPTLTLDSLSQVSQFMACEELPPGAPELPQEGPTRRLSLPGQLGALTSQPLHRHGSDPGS

## CC[n+]1c2c3c(cc(C)cc3c3cc(F)ccc31)N(C)c1ccc(F)cc1-2 (as salt: sulfate) [Compound 8, 13-Ethyl-3,11-difluoro-6,8-dimethyl-8H-quino[4,3,2-kl]acridinium trifluoromethosulfate]
other
  melting point: > 250 °C (dec.)

## CC[n+]1c2c3c(cc(C)cc3c3cc(F)ccc31)N(C)c1ccc(F)cc1-2 [Compound 8, 13-Ethyl-3,11-difluoro-6,8-dimethyl-8H-quino[4,3,2-kl]acridinium trifluoromethosulfate]
[1]
  inhibition at 10 µM: 18%
[2]
  Surface plasmon resonance K, Quadruplex (Q) DNA: 600000 M⁻¹
[2]; relative to compound 1
  fold reduction in on-target effect against h-Tel DNA sequence (SPR) relative to 1: > 10 fold

## CC[n+]1c2c3c(cc(C)cc3c3cc(F)ccc31)N(C)c1ccc(F)cc1-2
[3]
  K: 600000 M⁻¹

## CC(=O)Nc1ccc2c3cccc4c3c([n+](C)c2c1)-c1ccccc1N4C [Compound 2, 2-Acetylamino-8,13-dimethyl-8H-quino[4,3,2-kl]-acridinium iodide]
[4]; 10 μM, inhibition of control specific binding, CHO cells, read-out: B2 adrenergic % inhib. (10 μM)
  inhibition at 10 µM: 24%
[4]; comparing 1 to the compound
  decay of β2-adrenergic receptor inhibition compared to 1: 75%
[5]; compared to h-Tel without bound ligand (Tm 70 ± 3)
  CD study thermal stability ∆Tm: 19 °C
[5]; h-Tel 4 μM with 3.5 mol.equiv. ligand, K+ solution, unfolding at 290 nm
  CD study thermal stability Tm: 89 ± 3 °C
[6]
  day of maximum effect on cell proliferation: 6 days
[7]
  inhibition of cell proliferation in normal telomerized fibroblasts: did not induce inhibition of cell proliferation
[8]
  percentage of cells positive for γH2AX: quite similar to compound 1
[9]; cells with more than four γH2AX/TRF1 co-localizations
  percentage of TIF-positive cells: comparable levels with respect to 1
[9]; mean
  number of TIFs per nucleus: ca. eight
[10]
  telomere aberrations (telomere doublets, sister telomere fusions): quantitatively similar to the lead compound
[11]; Homo sapiens, NCI data, read-out: Mean GI50 value from the NCI60 panel
  GI50: 12 µM
[11]; several human cancer cell lines
  effect on cell proliferation in a panel of different histotype tumor cell lines: maintained an anti-proliferative effect
[12]
  ∆Tm: 19 °C
[3]
  K: 1.5e+07 M⁻¹
[13]
  K: 400000 M⁻¹
[2]
  Surface plasmon resonance K, Quadruplex (Q) DNA: 1.5e+07 M⁻¹
[14]
  binding: yes
